We go through 1 compound from patent US6572603B1, “Vitamin d solution holder and containers for transfusions” (Otsuka Pharmaceutical Factory, Inc., priority 1998, dated 2003).

What all share (type): physicochemical
A short description of data set [1]: Vitamin content of transfusion products of Examples 1 and 2 after four-month storage. The protocol:
In a holder produced from a polyethylene film having a thickness of 30 μm, solution (C) (4 ml) was charged and the inlet was melt-sealed, to thereby obtain a holder for the solution containing vitamin D3. The surface area of a solution-holding portion of the holder was 16 cm^2 and the volume of polyethylene constituting the solution-holding portion was 0.048 cm^3.
In a polyethylene-made two-compartment container (see FIG. 2), the above-described holder for vitamin D3 solution had been previously attached to one of the compartments. Solution (A) (600 ml) and solution (B) (300 ml) were charged into two compartments separately in an atmosphere replaced with nitrogen, and the container was sealed. Subsequently, the container was subjected to autoclaving through a customary method, to thereby obtain a transfusion product. The transfusion product was wrapped in a light-shielding nylon multi-layer bag together with a deoxidizing agent (trade name: Ageless, product of Mitsubishi Gas Chem. Co., Inc.).
In the same manner as in Example 1, solution (A), solution (B), and solution (C), having the compositions shown in Table 2, were prepared, and these solutions were charged into a holder and two compartments of a transfusion fluid container as described in Example 1. Subsequently, the container was subjected to autoclaving, to thereby obtain a transfusion product. […]

A short description of data set [2]: Vitamin contents in transfusion fluid containers of Examples 4 and 5 after autoclaving and 40° C. four-month storage, bioassay (vitamin B12, biotin) or HPLC (other vitamins). The protocol: In a holder produced from a three-layered film (the thickness of each layer: 10 μm) in which the outer and the inner layers are made of polyethylene and the intermediate layer is made of ethylene.tetracyclododecene copolymer (trade name: Apel, product of Mitsui Chemicals, Inc.), solution (C) (4 ml) was charged and the inlet was melt-sealed. In a two-compartment container, the prepared holder was attached to one of the compartments. […] The above-described transfusion fluid containers in Examples 4 and 5 were allowed to stand at 40° C. for four months after autoclaving. Thereafter, the contents of vitamins in the containers were measured through a bioassay according to Pharmacopoeia of Japan (for vitamin B12 and biotin) or through HPLC (for other vitamins). The content of each vitamin is represented by a percentage (%) of the initially incorporated amount.

Data set [3] is described as follows: Vitamin content of solution (C) in polyolefin holders after autoclaving and storage at 40° C. for four months, measured through HPLC (Example 3). The protocol:
Solution (C) (4 ml) prepared in Example 1 was charged into each of holders made of the materials shown in Table 3, to thereby obtain a holder which contains a solution of vitamin D3. Each of these holders containing a solution of vitamin D3 was subjected to autoclaving and wrapped in a nylon multi-layered-film bag together with a deoxidizing agent (trade name: Ageless, product of Mitsubishi Gas Chem. Co., Inc.). The thus-wrapped holders were allowed to stand at 40° C. for four months. Thereafter, the content of each vitamin in each holder was measured through HPLC. The content of each vitamin is represented by a percentage (%) of the initially incorporated amount.

With `C=C1CC[C@H](O)C/C1=C/C=C1\CCC[C@]2(C)[C@@H]([C@H](C)CCCC(C)C)CC[C@@H]12` [Vitamin D3, cholecalciferol], the “Vitamin content after storage (acceptable range ≧80%)” value in data set [1] is given as no less than 80%. For the same compound, the “Vitamin content, percentage (%) of the initially incorporated amount” value in data set [2] (Example 4 transfusion fluid container, 40° C., 4 months) is 88.7%; in data set [2] (Example 4 transfusion fluid container, immediately after sterilization), 89.8%; in data set [2] (Example 5 transfusion fluid container, 40° C., 4 months) it was 89.6%; in data set [2] (Example 5 transfusion fluid container, immediately after sterilization) it was 90.1%. Further, the “Vitamin content (%) of initially incorporated amount” value was 86.2% in data set [3] (holder No. 1, polyethylene, 30 μm, resin 7.4 cm^3 per μmol vitamin D, 40° C., 4 months); 95.4% in data set [3] (holder No. 1, polyethylene, 30 μm, resin 7.4 cm^3 per μmol vitamin D, after sterilization); 81.3% in data set [3] (holder No. 2, polyethylene, 100 μm, resin 18.5 cm^3 per μmol vitamin D, 40° C., 4 months); 94.6% in data set [3] (holder No. 2, polyethylene, 100 μm, resin 18.5 cm^3 per μmol vitamin D, after sterilization); 85.8% in data set [3] (holder No. 3, polypropylene, 30 μm, resin 7.4 cm^3 per μmol vitamin D, 40° C., 4 months); 96.2% in data set [3] (holder No. 3, polypropylene, 30 μm, resin 7.4 cm^3 per μmol vitamin D, after sterilization). The “Vitamin content (%) of initially incorporated amount” value was 66.3% in data set [3] (holder No. 4, polyethylene, 250 μm, resin 123.2 cm^3 per μmol vitamin D, 40° C., 4 months); “fell outside the acceptable range” in data set [3] (holder No. 4, polyethylene, 250 μm, resin 123.2 cm^3 per μmol vitamin D, 40° C., 4 months, listed as vitamin D3); 89.8% in data set [3] (holder No. 4, polyethylene, 250 μm, resin 123.2 cm^3 per μmol vitamin D, after sterilization); 69.1% in data set [3] (holder No. 5, polypropylene, 250 μm, resin 123.2 cm^3 per μmol vitamin D, 40° C., 4 months); “fell outside the acceptable range” in data set [3] (holder No. 5, polypropylene, 250 μm, resin 123.2 cm^3 per μmol vitamin D, 40° C., 4 months, listed as vitamin D3); 87.5% in data set [3] (holder No. 5, polypropylene, 250 μm, resin 123.2 cm^3 per μmol vitamin D, after sterilization).
